Assay results: publication PMC5069690, “Hepatic 3D spheroid models for the detection and study of compounds with cholestatic liability” (Scientific Reports, 2016)
Values joined by “and” are separate entries in the source; they are usually repeats but may differ in a detail not shown here. Equal entries are not always repeated. Where two headings read alike, the source gives them in different places.

How the values were obtained:
[1] = system: HepaRG spheroids; assay: Repeated-exposure toxicity in HepaRG spheroids with or without BA mixture, cellular ATP content; type: cell-based, human; details: for Cholestatic Index (EC50 (+BA) / EC50 (-BA)) / CC50: ATP, one value per independent experiment; for CC50: Homo sapiens, HepaRG, compound alone, read-out: Without BA EC50
Method: Cryopreserved differentiated HepaRG cells (Biopredic International, France) were thawed according to the supplier’s instructions. The cells were seeded in Williams’ medium E with GlutaMAX^TM containing the thaw, seed and general purpose additive (ADD670; Biopredic International). The cells were seeded at a density of 2,000 viable cells per well in ULA plates. From day 5, the spheroids were maintained in medium containing 0.5% DMSO, the serum-free induction additive (ADD650, Biopredic International), 20 ng/ml epidermal growth factor and 10 ng/ml hepatocyte growth factor (HumaXpress, Nordic BioSite, Sweden).
(§1) Toxicity studies were started at day 8 and day 5 for PHH and HepaRG spheroids, respectively.

[2] = system: multi-donor PHH spheroids; assay: Repeated-exposure toxicity in multi-donor PHH spheroids with or without BA mixture, albumin secretion; type: cell-based, human; details: for EC50: Homo sapiens, 336 h, 14 days repeated exposure
Method: The cells were seeded in PHH medium (Williams’ medium E containing 100 units/ml penicillin, 100 μg/ml streptomycin, 2 mM L-glutamine, 10 μg/ml insulin, 5.5 μg/ml transferrin, 6.7 ng/ml sodium selenite, 100 nM dexamethasone) supplemented with 10% fetal bovine serum. […] When PHH had reassembled into compact aggregates (day 4–6 after seeding), spheroids were shifted to serum-free PHH medium. […] The spheroids were maintained in serum-free PHH medium.
as §1

[3] = system: PHH spheroids; assay: Bile acid accumulation (fluorescent taurocholic acid derivative, confocal microscopy) in PHH spheroids; type: cell-based, human; details: repeated exposure for 8 days
Method: (§2) BA accumulation was assessed with a fluorescently labelled taurocholic acid derivative, tauro-nor-THCA-25-DBD (Genomembrane Company, Ltd, Japan). After 6 days of chlorpromazine exposure, the spheroids were co-exposed to chlorpromazine and 20 μM tauro-nor-THCA-25-DBD for an additional 2 days. Fluorescence was assessed by confocal microscopy (Zeiss LSM 710).

[4] = system: HepaRG spheroids; assay: Bile acid accumulation (fluorescent taurocholic acid derivative, confocal microscopy) in HepaRG spheroids; type: cell-based, human
Method: as §2

[5] = system: ABCB11, SRXN1, NFE2L2, DR5 expression in PHH spheroids; assay: RT-qPCR gene expression in PHH spheroids; type: cell-based, human; details: 8 days
Method: (§3) Total RNA was extracted using Qiazol according to the manufacturer’s protocol. RNA was reverse-transcribed into cDNA with SuperScript III reverse transcriptase. RT-qPCR analysis was performed with a 7500 Fast Real-Time PCR system using a TaqMan Universal or SYBR Green mix.

[6] = system: ABCB11, SRXN1, NFE2L2, DR5 expression in HepaRG spheroids; assay: RT-qPCR gene expression in HepaRG spheroids; type: cell-based, human; details: 8 days; for DR5 expression / NFE2L2 expression / SRXN1 expression: co-exposure with non-toxic BA mixture compared to compound or BAs alone
Method: as §3

[7] = system: F-actin cytoskeleton in PHH spheroids; assay: F-actin cytoskeleton integrity (Phalloidin staining) in PHH spheroids; type: cell-based, human; details: 8 days
Method: (§4) Spheroids were fixed in 4% paraformaldehyde at 4 °C O/N. Immunohistochemistry was performed on cryosections (8 μm) for BSEP (Atlas, Sweden) and MRP2 (Abcam, UK). […] F-actin was visualized using Alexa Fluor 488 Phalloidin. Slides were mounted with ProLong Gold Antifade Mountant with DAPI and fluorescence was assessed by confocal microscopy (Zeiss LSM 710). Surface expression of the BA transporters was quantified using CellProfiler software.

[8] = system: F-actin cytoskeleton in HepaRG spheroids; assay: F-actin cytoskeleton integrity (Phalloidin staining) in HepaRG spheroids; type: cell-based, human; details: 8 days
Method: as §4

[9] = system: BSEP; details: quoted in the discussion, no reference given; read-out: BSEP inhibition IC50; cited from earlier work
[10] = system: PHH spheroids; assay: Repeated-exposure toxicity in PHH spheroids with or without BA mixture, cellular ATP content;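 on all read-outs here: primary human hepatocyte spheroids dosed every second day with compound, with or without a bile acid mixture, viability read as cellular ATP by luminescence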; details: for CC50: Homo sapiens; for CC50 / Cholestatic Index (EC50 (+BA) / EC50 (-BA)): one value per independent experiment; for Cholestatic risk classification based on CIx / CIx (mean of the independent experiments) / Cholestatic Index (EC50 (+BA) / EC50 (-BA)) / CIx: PHH spheroids; for CIx (mean of the independent experiments): 8 days co-exposure with BAs vs compound alone; for Cholestatic Index (EC50 (+BA) / EC50 (-BA)): ATP; for CIx: cellular ATP content read-out, Supplementary Fig. S2A
Method: Cryopreserved PHH (Bioreclamation IVT, USA) were thawed according to the supplier’s instructions. The cells were seeded in PHH medium (Williams’ medium E containing 100 units/ml penicillin, 100 μg/ml streptomycin, 2 mM L-glutamine, 10 μg/ml insulin, 5.5 μg/ml transferrin, 6.7 ng/ml sodium selenite, 100 nM dexamethasone) supplemented with 10% fetal bovine serum. The cells were seeded at a density of 1,500 viable cells per well in ultra-low attachment (ULA) plates (Corning). When PHH had reassembled into compact aggregates (day 4–6 after seeding), spheroids were shifted to serum-free PHH medium. […] The hepatocytes were derived from 5 male and 5 female donors and were aggregated into 3D microtissues in GravityPLUS™ hanging drop plates and cultivated and assayed in GravityTRAP™ plates. The spheroids were maintained in serum-free PHH medium.
(§5) Stock solutions of the compounds were diluted in culture medium to a maximal final DMSO concentration of 0.3% for PHH spheroids and 0.6% for HepaRG spheroids. Toxicity studies were started at day 8 and day 5 for PHH and HepaRG spheroids, respectively. Spheroids were treated every other day with the compounds in the presence or absence of the BA mixture. Cellular ATP content was determined as a marker of cell viability using the CellTiter-Glo Luminescent Cell Viability Assay (Promega, Sweden). When indicated, albumin concentrations were determined by ELISA (Bethyl laboratories, USA).
(§6) To evaluate the cholestatic risk of the tested compounds we introduced the cholestatic index (CIx). The CIx is defined as the ratio between the EC50-value from co-exposure to a compound and the BA mixture and the EC50-value from exposure to the compound alone.

[11] = system: PHH spheroids; assay: Toxicity in PHH spheroids with or without BA mixture, albumin secretion read-out (Supplementary Fig. S2); details: 8 days, Supplementary Fig. S2B
Method: as §5, §6

[12] = 8 days co-exposure with BAs vs compound alone
[13] = 192 h, 8 days repeated exposure
[14] = 336 h, 14 days repeated exposure
[15] = multi-donor PHH spheroids (10 donors), co-exposure with BA mixture, albumin secretion, read-out: With BA EC50
[16] = multi-donor PHH spheroids (10 donors), compound alone, albumin secretion, read-out: Without BA EC50
[17] = co-exposure with non-toxic BA mixture compared to compound or BAs alone
[18] = 192 h, read-out: Without BA EC50, PHH spheroids, 8 days repeated exposure, compound alone, ATP
[19] = 336 h, read-out: Without BA EC50, PHH spheroids, 14 days repeated exposure, compound alone, ATP

Row | SMILES | Cholestatic risk classification based on CIx ([1]; 8 days) | CIx (mean of the independent experiments) [1, 12] | Cholestatic Index (EC50 (+BA) / EC50 (-BA)) ([1]; 8 days) | Cholestatic risk classification based on CIx ([1]; 14 days) | Cholestatic Index (EC50 (+BA) / EC50 (-BA)) ([1]; 14 days) | CC50 [1, 13] [µM] | CC50 [1, 14] [µM] | EC50 [2, 15] [µM] | EC50 [2, 16] [µM] | Cholestatic Index (EC50 (+BA) / EC50 (-BA)) ([2]; both, human, 14 days) | DR5 expression [5, 17] | NFE2L2 expression [5, 17] | SRXN1 expression [5, 17] | DR5 expression [6] | NFE2L2 expression [6] | CC50 [10, 18] [µM] | CC50 [10, 19] [µM] | Cholestatic risk classification based on CIx ([10]; 8 days) | CIx (mean of the independent experiments) [10] | Cholestatic Index (EC50 (+BA) / EC50 (-BA)) ([10]; 14 days) | other results
1 | CN(C)CCCN1c2ccccc2Sc2ccc(Cl)cc21 [Chlorpromazine, chlorpromazine] | low cholestatic risk (Compounds with a CIx ≥ 0.80) | 0.87 ± 0.06 | 0.88 and 0.81 and 0.93 | cholestatic risk (compounds with a CIx ≤ 0.80 were considered to have cholestatic risk) | 0.63 and 0.65 and 0.69 | 17 | 14 | 1.7 | 4.5 | 0.38 | significantly induced DR5 | significantly further increased NFE2L2 expression | significant induction of SRXN1 | significantly induced DR5 | significantly further increased NFE2L2 expression | 14 | 12 | low cholestatic risk (Compounds with a CIx ≥ 0.80) | 0.90 ± 0.12 | 0.80 and 0.71 and 0.77 | CIx (mean of the independent experiments) ([1]; 14 days of repeated exposure): 0.66 ± 0.03; intracellular BA accumulation (tauro-nor-THCA-24-DBD) [3]: cytoplasmic accumulation; toxicity to the spheroids ([4]; 10 μM, 8 days): toxic; intracellular BA accumulation (tauro-nor-THCA-24-DBD) ([4]; repeated exposure for 8 days): cytoplasmic accumulation; expression of ABCB11, encoding BSEP ([5]; normalized to GAPDH): inhibited the expression of ABCB11; DR5 expression ([5]; toxic concentration alone (80x BA; 12.5 µM CPZ), Supplementary Fig. S3): no change in DR5 expression; SRXN1 expression [6]: significant induction of SRXN1; expression of ABCB11, encoding BSEP ([6]; normalized to GAPDH): inhibited the expression of ABCB11; F-actin expression and integrity [7]: reduced F-actin expression and disrupted its integrity; F-actin expression and integrity [8]: reduced F-actin expression and disrupted its integrity; IC50 [9]: 148 µM; Cholestatic Index (EC50 (+BA) / EC50 (-BA)) ([10]; 8 days): 0.85 and 1.07 and 0.83; CIx ([10]; 8 days): 0.75; Cholestatic risk classification based on CIx ([10]; 14 days): cholestatic risk (compounds with a CIx ≤ 0.80 were considered to have cholestatic risk); CIx [11]: 0.69
2 | CC(=O)Nc1ccc(O)cc1 [Acetaminophen, acetaminophen] |  | 1.02 ± 0.03 |  |  |  | 1600 | 1000 | 1830 | 1910 |  | no induction of DR5 | no changes in SRXN1 or NFE2L2 expression | no changes in SRXN1 or NFE2L2 expression | no induction of DR5 | no changes in SRXN1 or NFE2L2 expression | 1090 | 804 |  | 1.89 ± 0.37 |  | SRXN1 expression [6]: no changes in SRXN1 or NFE2L2 expression
3 | CN(C)[C@@H]1C(O)=C(C(N)=O)C(=O)[C@@]2(O)C(O)=C3C(=O)c4c(O)cccc4[C@@](C)(O)[C@H]3C[C@@H]12 [Tetracycline, tetracycline] | low cholestatic risk (Compounds with a CIx ≥ 0.80) | 1.05 ± 0.12 | 0.91 and 1.13 and 1.12 | low cholestatic risk (Compounds with a CIx ≥ 0.80) | 0.95 and 1.18 and 1.16 | 242 | 121 | 123 | 120 |  |  |  |  |  |  | 116 | 74 | low cholestatic risk (Compounds with a CIx ≥ 0.80) | 1.00 ± 0.08 | 1.41 and 1.07 and 0.94 | Cholestatic Index (EC50 (+BA) / EC50 (-BA)) ([2]; multi-donor PHH spheroids (10 donors), 14 days, albumin secretion): 1.03; Cholestatic risk classification based on CIx ([2]; multi-donor PHH spheroids, 14 days): low cholestatic risk (Compounds with a CIx ≥ 0.80); Cholestatic Index (EC50 (+BA) / EC50 (-BA)) ([10]; 8 days): 1.01 and 0.91 and 1.07; CIx ([10]; 8 days): 0.87; Cholestatic risk classification based on CIx ([10]; 14 days): low cholestatic risk (Compounds with a CIx ≥ 0.80); CIx [11]: 1.08
4 | COc1ccccc1Oc1c(NS(=O)(=O)c2ccc(C(C)(C)C)cc2)nc(-c2ncccn2)nc1OCCO [Bosentan, bosentan] | cholestatic risk (compounds with a CIx ≤ 0.80 were considered to have cholestatic risk) | 0.60 ± 0.06 | 0.63 and 0.54 and 0.64 |  | 0.61 and 0.50 and 0.48 | 187 | 115 | 54 | 102 | 0.53 |  |  |  |  |  | 66 | 55 | cholestatic risk (compounds with a CIx ≤ 0.80 were considered to have cholestatic risk) | 0.19 ± 0.12 | 0.11 and 0.12 and 0.16 | IC50 [9]: 38.1 µM
